Patent publication US20210198269A1, “INHIBITORS OF GLUCOSE TRANSPORTERS (GLUTs)” (LEAD DISCOVERY CENTER GMBH, priority 2018, published 2021)

Assays:
Assay type in all cases: cell-based
GLUT1 = target: T1, GLUT1 (Homo sapiens, UniProt P11166); assay: GLUT1 transporter activity assay (2-DG uptake) in DLD1 cells; conditions: DLD1 cell line; read-out: GLUT1 inhibitory activity (IC50)
T1 construct: host or cells: DLD-1 (DLD1) cells
T1 sequence (P11166 1-492): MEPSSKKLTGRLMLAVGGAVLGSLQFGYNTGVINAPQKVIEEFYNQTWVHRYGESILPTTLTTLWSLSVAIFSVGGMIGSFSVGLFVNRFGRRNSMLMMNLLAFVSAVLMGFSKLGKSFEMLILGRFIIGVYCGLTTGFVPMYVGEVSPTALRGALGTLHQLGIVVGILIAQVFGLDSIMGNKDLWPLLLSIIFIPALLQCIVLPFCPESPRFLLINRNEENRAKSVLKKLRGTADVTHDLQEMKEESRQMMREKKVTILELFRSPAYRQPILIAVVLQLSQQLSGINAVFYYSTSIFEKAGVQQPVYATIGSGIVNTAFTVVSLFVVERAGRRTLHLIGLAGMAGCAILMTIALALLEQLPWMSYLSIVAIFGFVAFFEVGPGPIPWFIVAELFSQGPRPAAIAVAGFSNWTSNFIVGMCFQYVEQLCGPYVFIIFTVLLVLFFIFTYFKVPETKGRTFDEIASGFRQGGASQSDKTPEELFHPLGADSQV
Text: (§1) GLUT 1, 2, 3 and 4 Transporter Activity Assays
(§2) Assays were based on the specificity assays reported by Kapoor et al., Proceedings of the National Academy of Sciences 2016, 113 (17) 4711-4716. For GLUT1, GLUT2, GLUT3 and GLUT4 specificity testing DLD1, CHO-hGLUT2, DLD-1-GLUT1−/− and CHO-hGLUT4 cell lines were used.
(§3) Assay protocols for 2-deoxy-Glucose (2-DG) Uptake Assay with DLD1 or DLD1-Glut1(−/−) cells or 7,000 CHOK1-SLC2A4 cells lines:
(§4) 14,000 DLD1 or DLD1-Glut1(−/−) cells or 7,000 CHOK1-SLC2A4 cells were seeded in black, clear bottom 384-well plates in glucose- and phenolred-free RPMI1640 medium supplemented with 1% FCS and 2 mM L-glutamine and allowed to attach overnight. Next day, cells were washed and incubated with compounds or DMSO and 1 mM 2-DG in glucose- and phenolred-free RPMI1640 medium for 30 min. Cells were then washed and lysed in 0.06 M HCl and 1% CHAPS for 15 min at 65° C. The amount of 2-DG in the lysate was determined by means of enzyme-coupled assay. For this 16 U/mL glucose-6-phosphate dehydrogenase, 0.2 U/mL diaphorase, 0.1 mM NADP^+ and 10 μM resazurin were added to the lysates. Resorufin fluorescence was determined as a measure of 2-DG uptake at ex/em 535/590 nm with a Victor Multilabel plate reader (Perkin Elmer). Blank values were subtracted from all readings and values were normalized to the DMSO control.

GLUT3 = target: T2, GLUT3 (Homo sapiens, UniProt P11169); assay: GLUT3 transporter activity assay (2-DG uptake) in DLD-1-GLUT1-/- cells; conditions: DLD-1-GLUT1-/- cell line; read-out: GLUT3 inhibitory activity (IC50)
T2 construct: host or cells: DLD-1-GLUT1(-/-) cells
T2 sequence (P11169 1-496): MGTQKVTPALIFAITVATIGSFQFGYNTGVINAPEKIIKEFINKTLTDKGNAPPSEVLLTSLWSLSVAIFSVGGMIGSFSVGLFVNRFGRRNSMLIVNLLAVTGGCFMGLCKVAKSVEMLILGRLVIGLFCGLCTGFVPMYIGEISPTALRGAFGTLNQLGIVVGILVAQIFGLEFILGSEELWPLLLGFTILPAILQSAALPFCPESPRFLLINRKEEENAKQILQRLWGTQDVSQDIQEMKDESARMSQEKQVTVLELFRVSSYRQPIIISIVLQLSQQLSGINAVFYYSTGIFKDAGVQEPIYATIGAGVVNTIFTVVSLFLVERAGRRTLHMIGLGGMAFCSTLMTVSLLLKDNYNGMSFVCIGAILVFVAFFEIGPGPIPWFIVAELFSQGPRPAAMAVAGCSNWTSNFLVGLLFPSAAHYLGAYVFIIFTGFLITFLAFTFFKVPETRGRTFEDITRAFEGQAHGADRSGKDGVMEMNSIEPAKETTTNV
Text: as §1, §2, §3, §4

GLUT4 = target: T3, GLUT4 (Homo sapiens, UniProt P14672); assay: GLUT4 transporter activity assay (2-DG uptake) in CHO-hGLUT4 cells; conditions: CHO-hGLUT4 cell line; read-out: GLUT4 inhibitory activity (IC50)
T3 sequence (P14672 1-509): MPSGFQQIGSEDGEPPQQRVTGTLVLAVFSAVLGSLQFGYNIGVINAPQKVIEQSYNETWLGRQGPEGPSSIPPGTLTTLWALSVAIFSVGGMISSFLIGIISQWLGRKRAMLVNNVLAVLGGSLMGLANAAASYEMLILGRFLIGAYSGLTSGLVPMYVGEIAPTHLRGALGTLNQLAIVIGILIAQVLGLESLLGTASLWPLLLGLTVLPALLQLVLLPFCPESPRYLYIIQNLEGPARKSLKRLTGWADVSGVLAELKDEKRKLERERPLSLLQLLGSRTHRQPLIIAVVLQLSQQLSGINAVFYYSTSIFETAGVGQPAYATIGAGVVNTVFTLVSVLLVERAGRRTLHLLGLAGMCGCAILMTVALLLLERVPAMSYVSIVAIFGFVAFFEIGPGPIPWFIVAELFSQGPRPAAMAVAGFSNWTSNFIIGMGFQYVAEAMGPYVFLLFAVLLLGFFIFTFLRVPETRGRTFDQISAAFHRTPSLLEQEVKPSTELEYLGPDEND
Procedure: CHOK1-SLC2A4 cells were generated by transfection of CHOK1 cells with pCMV6-Entry-GLUT4 (Origene #SC125240) using Lipofectamin2000 according to the supplier's instructions. Briefly, 1.5E5 cells/well CHOK1 cells were seeded in 6-well cell culture plates. After overnight incubation, DNA-lipid complexes (2 μg plasmid DNA, DNA:lipid ratio 1:10) were prepared in OptiMEM and then added to the cells. After 5 days incubation, 800 μg G418 was added to the culture medium to generate a stable polyclone. For monoclone selection, single cells were re-plated in 96-well plates, expanded and selected by transgene overexpression and functional performance.
as §1, §2, §3, §4

HCT116 cells = assay: 2-Deoxy-Glucose (2-DG) uptake assay in HCT116 cells; conditions: Homo sapiens, HCT-116, 0.5 h, 1 mM 2-DG, 30 min, read-out: IC50 determined for the inhibition of 2-DG uptake in HCT116 cells
Procedure: The 2-DG uptake assay was carried out as described by Yamamoto N. et al. with slight modifications ([…]). Briefly, 40,000 HCT116 or CHO cells were seeded in black, clear bottom 96-well plates and allowed to attach overnight. Cells were incubated with compounds or DMSO and 1 mM 2-DG in glucose-free KRB buffer (20 mM HEPES, 5 mM KH2PO4, 1 mM MgSO4, 1 mM CaCl2), 136 mM NaCl, 0.1% BSA, pH 7.4) for 30 min. In the case of GLUT-4 transfected cells, Insulin (100 μg/mL) was added to the buffer. Cells were then washed and lysed in 0.06 M HCl and 1% CHAPS for 15 min at 65° C. while shaking. The amount of 2-DG in the lysate was determined by means of enzyme-coupled assay. For this 6.4 U/mL glucose-6-phosphate dehydrogenase, 0.2 U/mL diaphorase, 0.1 mM NADP^+ and 0.025 mg/mL resazurin were added to the lysates. Resorufin fluorescence was determined as a measure of 2-DG uptake at ex/em 535/590 nm with a Tecan Infinite M200 plate reader (Tecan). Blank values were subtracted from all readings and values were normalized to the DMSO control.

GLUT2 = target: T4, GLUT2 (Homo sapiens, UniProt P11168); assay: GLUT2 transporter activity assay in CHO-hGLUT2 cells (indirect, intracellular ATP levels); conditions: CHO-hGLUT2 cell line; read-out: GLUT2 inhibitory activity (IC50)
T4 sequence (P11168 1-524): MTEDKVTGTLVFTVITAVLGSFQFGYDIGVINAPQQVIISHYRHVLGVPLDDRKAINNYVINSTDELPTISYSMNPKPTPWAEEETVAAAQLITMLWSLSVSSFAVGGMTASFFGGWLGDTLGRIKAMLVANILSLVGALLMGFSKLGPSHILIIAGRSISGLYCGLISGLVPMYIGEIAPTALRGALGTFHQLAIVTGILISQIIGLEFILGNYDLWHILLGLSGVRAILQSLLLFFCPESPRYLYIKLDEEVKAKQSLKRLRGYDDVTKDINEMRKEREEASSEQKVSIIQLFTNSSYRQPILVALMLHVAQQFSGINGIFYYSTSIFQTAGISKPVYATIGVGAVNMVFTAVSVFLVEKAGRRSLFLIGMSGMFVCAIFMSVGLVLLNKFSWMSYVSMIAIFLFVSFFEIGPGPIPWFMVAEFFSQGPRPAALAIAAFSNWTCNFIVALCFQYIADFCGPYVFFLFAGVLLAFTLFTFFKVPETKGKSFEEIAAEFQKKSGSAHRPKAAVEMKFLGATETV
Text: as §1, §2
Example 8-3: Indirect Measurement of GLUT2 (SLC2A2) Activity by Quantification of Intracellular ATP Levels
A combination of small-molecule inhibitors of mitochondrial electron transport chain and glucose catabolism synergistically suppress ATP production and impair cellular viability (Ulanovskaya et al., 2008, 2011; Liu, et al. 2001). We therefore used CHOK1 cells overexpressing SLC2A2 (CHOK1-SLC2A2) in combination with an oxidative phosphorylation inhibitor (Rotenon) to identify GLUT2 inhibitors. CHOK1-SLC2A2 cells were purchased from creative biogene (catNo: CSC-SC014484) and maintained in RPMI1640 supplemented with 10% FBS and 2 mM L-Glutamine. For the Glut2-ATP-Assay, 7,500 cells were seeded in black, clear bottom 384-well plates directly in glucose- and phenolred-free RPMI1640 medium supplemented with 1% FCS and 2 mM L-glutamine and cultured overnight to reduce intracellular ATP levels. Next day, cells were washed and incubated with […] and compounds or DMSO and 2.5 mM fructose in glucose- and phenolred-free RPMI1640 medium for 40 min. The CellTiter-Glo® Luminescence Viability Assay from Promega was used to measure ATP levels. Luminescence was measured with a Victor Multilabel plate reader (Perkin Elmer). Blank values were subtracted from all readings and values were normalized to the DMSO control.

Row | SMILES | IC50 (GLUT1) | IC50 (GLUT3) | IC50 (GLUT4) | IC50 (HCT116 cells) | IC50 (GLUT2)
1 | Cc1ccc(CCNC(=O)c2cccc(N3C(=O)NC4CC3(C)Oc3c(OCc5ccccc5C)cccc34)c2)cc1 (stereo not shown) [Compound A02, 3-(2-Methyl-10-((2-methylbenzyl)oxy)-4-oxo-5,6-dihydro-2H-2,6-methanobenzo[g][1,3,5]oxadiazocin-3(4H)-yl)-N-(4-methylphenethyl)benzamide] | 1 to 4 µM | 1 to 4 µM | > 25 µM | ≤ 5 µM | 
2 | Cc1ccc(CCNC(=O)c2cccc(N3C(=O)NC4CC3(C)Oc3c(OCc5ccc([N+](=O)[O-])cc5)cccc34)c2)cc1 (stereo not shown) [Compound A03, 3-(2-Methyl-10-((4-nitrobenzyl)oxy)-4-oxo-5,6-dihydro-2H-2,6-methanobenzo[g][1,3,5]oxadiazocin-3(4H)-yl)-N-(4-methylphenethyl)benzamide] | 0.3 to 1 µM | 0.3 to 1 µM | 4 to 10 µM | ≤ 5 µM | 
3 | Cc1ccc(CCNC(=O)c2cccc(N3C(=O)NC4CC3(C)Oc3c(OCc5cccc(Cl)c5)cccc34)c2)cc1 (stereo not shown) [Compound A04, 3-(10-((3-Chlorobenzyl)oxy)-2-methyl-4-oxo-5,6-dihydro-2H-2,6-methanobenzo[g][1,3,5]oxadiazocin-3(4H)-yl)-N-(4-methylphenethyl)benzamide] | 0.3 to 1 µM | 0.3 to 1 µM | > 25 µM | ≤ 5 µM | 
4 | Cc1ccc(CCNC(=O)c2cccc(N3C(=O)NC4CC3(C)Oc3c(OCc5ccc(C#N)cc5)cccc34)c2)cc1 (stereo not shown) [Compound A05, 3-(10-((4-Cyanobenzyl)oxy)-2-methyl-4-oxo-5,6-dihydro-2H-2,6-methanobenzo[g][1,3,5]oxadiazocin-3(4H)-yl)-N-(4-methylphenethyl)benzamide] | ≤ 0.3 µM | ≤ 0.3 µM | 4 to 10 µM | ≤ 5 µM | 
5 | Cc1ccc(CCNC(=O)c2cccc(N3C(=O)NC4CC3(C)Oc3c(OCc5ccc(C(C)(C)C)cc5)cccc34)c2)cc1 (stereo not shown) [Compound A06, 3-(10-((4-(tert-Butyl)benzyl)oxy)-2-methyl-4-oxo-5,6-dihydro-2H-2,6-methanobenzo[g][1,3,5]oxadiazocin-3(4H)-yl)-N-(4-methylphenethyl)benzamide] |  |  |  | ≤ 5 µM | 
6 | CC12CC(NC(=O)N1c1cccc(C(=O)NCCc3ccccc3)c1)c1cccc(OCc3ccccc3)c1O2 (stereo not shown) [Compound A36, 3-(10-(benzyloxy)-2-methyl-4-oxo-5,6-dihydro-2H-2,6-methanobenzo[g][1,3,5]oxadiazocin-3(4H)-yl)-N-(phenethyl)benzamide] | 0.3 to 1 µM | 0.3 to 1 µM | 4 to 10 µM |  | > 25 µM
7 | COC(=O)c1cccc(N2C(=O)NC3CC2(C)Oc2c(OCc4ccccc4)cccc23)c1 (stereo not shown) [Compound A37, methyl 3-(10-(benzyloxy)-2-methyl-4-oxo-5,6-dihydro-2H-2,6-methanobenzo[g][1,3,5]oxadiazocin-3(4H)-yl)benzoate] | 1 to 4 µM | 1 to 4 µM | 10 to 25 µM |  | > 25 µM
